Test results taken from ChEMBL document CHEMBL1140382, “11C-labeling of n-[4-[4-(2,3-dichlorophenyl)piperazin-1-yl]butyl]arylcarboxamide derivatives and evaluation as potential radioligands for PET imaging of dopamine D3 receptors” (J Med Chem, 2005).

How the values were obtained:
D(2) dopamine receptor = D(2) dopamine receptor (Rattus norvegicus, UniProt P61169); experiment: Binding affinity towards rat dopamine D2 receptor using [11C] radiotracer
D(4) dopamine receptor = target: T1, D(4) dopamine receptor (Rattus norvegicus, UniProt P30729); experiment: Binding affinity for rat dopamine D4 receptor using [11C] radiotracer
T1 sequence (P30729 whole entry): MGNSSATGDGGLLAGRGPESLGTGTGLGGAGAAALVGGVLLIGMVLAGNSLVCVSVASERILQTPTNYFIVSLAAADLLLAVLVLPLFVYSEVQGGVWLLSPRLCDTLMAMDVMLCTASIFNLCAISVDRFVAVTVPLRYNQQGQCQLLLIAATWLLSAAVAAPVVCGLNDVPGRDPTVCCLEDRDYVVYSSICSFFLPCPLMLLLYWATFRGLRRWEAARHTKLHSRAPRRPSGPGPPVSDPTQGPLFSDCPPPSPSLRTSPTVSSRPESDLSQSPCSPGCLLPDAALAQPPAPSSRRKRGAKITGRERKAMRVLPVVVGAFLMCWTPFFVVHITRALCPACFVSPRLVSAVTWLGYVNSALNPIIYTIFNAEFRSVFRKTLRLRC

[1] = target: Sigma non-opioid intracellular receptor 1 (Rattus norvegicus, UniProt Q9R0C9); experiment: Binding affinity for rat Opioid receptor sigma 1 using [11C] radiotracer
Sigma non-opioid intracellular receptor 1, sequence (Q9R0C9 whole entry): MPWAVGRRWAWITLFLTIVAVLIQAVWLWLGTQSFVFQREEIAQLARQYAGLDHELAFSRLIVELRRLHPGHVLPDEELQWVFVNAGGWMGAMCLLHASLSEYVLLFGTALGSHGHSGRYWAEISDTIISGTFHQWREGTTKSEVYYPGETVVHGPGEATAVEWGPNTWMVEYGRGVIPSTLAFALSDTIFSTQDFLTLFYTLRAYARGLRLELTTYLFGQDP

[2] = target: D(3) dopamine receptor (Rattus norvegicus) (UniProt P19020)
D(3) dopamine receptor (Rattus norvegicus), sequence (P19020 whole entry): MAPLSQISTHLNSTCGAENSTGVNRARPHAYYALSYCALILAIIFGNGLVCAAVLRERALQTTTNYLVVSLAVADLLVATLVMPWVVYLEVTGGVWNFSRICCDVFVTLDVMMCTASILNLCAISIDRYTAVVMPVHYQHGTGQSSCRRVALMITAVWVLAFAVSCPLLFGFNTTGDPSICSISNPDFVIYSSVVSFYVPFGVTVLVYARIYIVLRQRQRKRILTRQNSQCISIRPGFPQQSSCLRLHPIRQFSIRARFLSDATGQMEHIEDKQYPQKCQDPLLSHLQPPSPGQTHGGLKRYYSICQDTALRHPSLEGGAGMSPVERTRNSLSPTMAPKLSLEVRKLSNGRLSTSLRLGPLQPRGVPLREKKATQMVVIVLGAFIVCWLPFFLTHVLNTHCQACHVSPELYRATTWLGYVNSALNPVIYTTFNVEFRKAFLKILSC

D(3) dopamine receptor = D(3) dopamine receptor (Rattus norvegicus, UniProt P19020); experiment: Binding affinity for rat dopamine D3 receptor using [11C]GR-218,231
D(3) dopamine receptor, sequence (P19020 whole entry): as above

D(2) dopamine receptor, sequence (P61169 whole entry): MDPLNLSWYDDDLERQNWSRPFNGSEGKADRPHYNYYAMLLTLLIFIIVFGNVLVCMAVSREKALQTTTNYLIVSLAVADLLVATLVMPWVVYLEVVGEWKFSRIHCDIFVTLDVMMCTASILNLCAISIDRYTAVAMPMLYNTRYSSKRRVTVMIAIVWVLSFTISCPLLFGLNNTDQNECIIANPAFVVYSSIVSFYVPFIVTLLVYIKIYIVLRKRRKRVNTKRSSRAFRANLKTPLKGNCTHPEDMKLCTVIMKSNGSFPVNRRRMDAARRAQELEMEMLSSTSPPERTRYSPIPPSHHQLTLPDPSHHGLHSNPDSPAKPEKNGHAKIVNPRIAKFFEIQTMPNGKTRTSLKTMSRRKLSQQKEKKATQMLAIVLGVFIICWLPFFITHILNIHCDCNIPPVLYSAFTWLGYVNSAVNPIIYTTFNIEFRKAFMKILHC

SMILES | Ki (D(2) dopamine receptor) [nM] | Ki (D(4) dopamine receptor) [nM] | Ki [1] [nM] | pKi [2] | Ki (D(3) dopamine receptor) [nM]
COc1cccc2cc(C(=O)NCCCCN3CCN(c4cccc(Cl)c4Cl)CC3)oc12 | 720 | 373 | 180 |  | 
COc1c(C(=O)NCCCCN2CCN(c3cccc(Cl)c3Cl)CC2)ccc2ccccc12 | 720 | 830 | 342 |  | 
CCCN(CCC)C1CCc2cc(CS(=O)(=O)c3ccc(OC)cc3)ccc2C1 (stereo not drawn) |  |  |  | 9 | 
COc1cc(Br)cc(C(=O)NCCCCN2CCN(c3cccc(Cl)c3Cl)CC2)c1OC |  |  |  |  | 2
